Test results reported in patent US11135234B2, “Effective aminoglycoside antibiotic for multidrug-resistant bacteria” (MICROBIAL CHEMISTRY RESEARCH FOUNDATION, priority 2015, dated 2021).
Values after ≈ are worked out from the molar mass of the structure shown.

What was measured:
S. aureus RN4220/pMS520 = assay: MIC, agar plate dilution method, S. aureus RN4220/pMS520; assay type: cell-based, Staphylococcus aureus; conditions: for minimal inhibitory concentration (MIC): S. aureus RN4220/pMS520, MRSA
In short: (§1)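 MIC values, expressed in μg/mL, come from an agar plate dilution assay run as the Japan Society of Chemotherapy describes.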

S. aureus MF490 = assay: MIC, agar plate dilution method, S. aureus MF490; assay type: cell-based, Staphylococcus aureus; conditions: for minimal inhibitory concentration (MIC): S. aureus MF490, MRSA
In short: as §1

[1] = system: K. pneumoniae ATCC BAA-2146; assay: MIC, agar plate dilution method, K. pneumoniae ATCC BAA-2146; assay type: cell-based, Klebsiella pneumoniae; conditions: for minimal inhibitory concentration (MIC): K. pneumoniae ATCC BAA-2146, NDM-producing strain
In short: as §1

P. aeruginosa PAO1/GN315 = assay: MIC, agar plate dilution method, P. aeruginosa PAO1/GN315; assay type: cell-based, Pseudomonas aeruginosa; conditions: for minimal inhibitory concentration (MIC): P. aeruginosa PAO1/GN315, AMK-resistant
In short: as §1

S. marcescens TH-0447 = assay: MIC, agar plate dilution method, S. marcescens TH-0447; assay type: cell-based, Serratia marcescens; conditions: for minimal inhibitory concentration (MIC): S. marcescens TH-0447, AMK-resistant
In short: as §1

P. aeruginosa PAO1 = assay: MIC, agar plate dilution method, P. aeruginosa PAO1; assay type: cell-based, Pseudomonas aeruginosa; conditions: for minimal inhibitory concentration (MIC): P. aeruginosa PAO1, Sensitive bacterium
In short: as §1

E. coli JM109/pMW218 = assay: MIC, agar plate dilution method, E. coli JM109/pMW218; assay type: cell-based, Escherichia coli; conditions: for minimal inhibitory concentration (MIC): E. coli JM109/pMW218, Sensitive bacterium
In short: as §1

P. aeruginosa MSC17707 = assay: MIC, agar plate dilution method, P. aeruginosa MSC17707; assay type: cell-based, Pseudomonas aeruginosa; conditions: for minimal inhibitory concentration (MIC): P. aeruginosa MSC17707, AMK-resistant
In short: as §1

S. marcescens GN6944 = assay: MIC, agar plate dilution method, S. marcescens GN6944; assay type: cell-based, Serratia marcescens; conditions: S. marcescens GN6944, GM-resistant
In short: as §1

P. aeruginosa MSC01035 = assay: MIC, agar plate dilution method, P. aeruginosa MSC01035; assay type: cell-based, Pseudomonas aeruginosa; conditions: P. aeruginosa MSC01035, ABK-resistant
In short: as §1

[2] = system: K. pneumoniae ATCC BAA-1705; assay: MIC, agar plate dilution method, K. pneumoniae ATCC BAA-1705; assay type: cell-based, Klebsiella pneumoniae; conditions: for minimal inhibitory concentration (MIC): K. pneumoniae ATCC BAA-1705, KPC-producing strain
In short: as §1

S. aureus RN4220 = assay: MIC, agar plate dilution method, S. aureus RN4220; assay type: cell-based, Staphylococcus aureus; conditions: for minimal inhibitory concentration (MIC): S. aureus RN4220, Sensitive bacterium
In short: as §1

[3] = system: A. baumannii ATCC BAA-1710; assay: MIC, agar plate dilution method, A. baumannii ATCC BAA-1710; assay type: cell-based, Acinetobacter baumannii; conditions: for minimal inhibitory concentration (MIC): A. baumannii ATCC BAA-1710, MDRA
In short: as §1

E. faecium ATCC19434 = assay: MIC, agar plate dilution method, E. faecium ATCC19434; assay type: cell-based, Enterococcus faecium; conditions: for minimal inhibitory concentration (MIC): E. faecium ATCC19434
In short: as §1

Compound: CNC1C(OC2OC(CO)C(NC(=N)N)CC2O)OC2CC(N)C(OC3C(N)CC(N)C(O)C3O)OC2C1O (stereo not drawn) [Compound X4-a, 4″-deamino-3″-deoxy-5-epi-4″-guanidinoapramycin]
- minimal inhibitory concentration (MIC) (S. aureus RN4220/pMS520): 1 µg/mL (≈ 1.77 µM)
- minimal inhibitory concentration (MIC) (S. aureus MF490): 4 µg/mL (≈ 7.07 µM)
- minimal inhibitory concentration (MIC) [1]: 1 µg/mL (≈ 1.77 µM)
- minimal inhibitory concentration (MIC) (P. aeruginosa PAO1/GN315): 4 µg/mL (≈ 7.07 µM)
- minimal inhibitory concentration (MIC) (S. marcescens TH-0447): 4 µg/mL (≈ 7.07 µM)
- minimal inhibitory concentration (MIC) (P. aeruginosa PAO1): 4 µg/mL (≈ 7.07 µM)
- minimal inhibitory concentration (MIC) (E. coli JM109/pMW218): 0.5 µg/mL (≈ 0.884 µM)
- minimal inhibitory concentration (MIC) (P. aeruginosa MSC17707): 8 µg/mL (≈ 14.1 µM)
- minimal inhibitory concentration (MIC) (S. marcescens GN6944): 4 µg/mL (≈ 7.07 µM)
- minimal inhibitory concentration (MIC) (P. aeruginosa MSC01035): 8 µg/mL (≈ 14.1 µM)
- minimal inhibitory concentration (MIC) [2]: 1 µg/mL (≈ 1.77 µM)
- minimal inhibitory concentration (MIC) (S. aureus RN4220): 1 µg/mL (≈ 1.77 µM)
- minimal inhibitory concentration (MIC) [3]: 4 µg/mL (≈ 7.07 µM)
- minimal inhibitory concentration (MIC) (E. faecium ATCC19434): 8 µg/mL (≈ 14.1 µM)

Compound: CNC1C(O[C@H]2OC(CO)[C@@H](NC(=N)N)CC2O)O[C@H]2CC(N)[C@@H](O[C@@H]3C(N)C[C@@H](N)C(O)[C@H]3F)OC2C1O (stereo partly drawn) [Compound X4-b, 4″-deamino-5,3″-dideoxy-5-epi-5-fluoro-4″-guanidinoapramycin]
- MIC (S. aureus RN4220/pMS520; Staphylococcus aureus, MRSA, read-out: minimal inhibitory concentration (MIC), S. aureus RN4220/pMS520, MRSA): 1 µg/mL (≈ 1.76 µM)
- MIC (S. aureus MF490; Staphylococcus aureus, MRSA, read-out: minimal inhibitory concentration (MIC)): 4 µg/mL (≈ 7.05 µM)
- MIC ([1]; Klebsiella pneumoniae, ATCCBAA2146, K. pneumoniae ATCC BAA-2146, NDM-producing strain, read-out: minimal inhibitory concentration (MIC)): 1 µg/mL (≈ 1.76 µM)
- MIC (P. aeruginosa PAO1/GN315; Pseudomonas aeruginosa, read-out: minimal inhibitory concentration (MIC), P. aeruginosa PAO1/GN315, AMK-resistant): 8 µg/mL (≈ 14.1 µM)
- MIC (S. marcescens TH-0447; Serratia marcescens, TH0447, S. marcescens TH-0447, AMK-resistant, read-out: minimal inhibitory concentration (MIC)): 4 µg/mL (≈ 7.05 µM)
- MIC (P. aeruginosa PAO1; Pseudomonas aeruginosa, PAO1, P. aeruginosa PAO1, Sensitive bacterium, read-out: minimal inhibitory concentration (MIC)): 4 µg/mL (≈ 7.05 µM)
- MIC (E. coli JM109/pMW218; Escherichia coli, JM109/PMW218, E. coli JM109/pMW218, Sensitive bacterium, read-out: minimal inhibitory concentration (MIC)): 1 µg/mL (≈ 1.76 µM)
- MIC (P. aeruginosa MSC17707; Pseudomonas aeruginosa, MSC17707, P. aeruginosa MSC17707, AMK-resistant, read-out: minimal inhibitory concentration (MIC)): 8 µg/mL (≈ 14.1 µM)
- MIC (S. marcescens GN6944; Serratia marcescens, read-out: minimal inhibitory concentration (MIC)): 4 µg/mL (≈ 7.05 µM)
- MIC (P. aeruginosa MSC01035; Pseudomonas aeruginosa, read-out: minimal inhibitory concentration (MIC)): 16 µg/mL (≈ 28.2 µM)
- MIC ([2]; Klebsiella pneumoniae, ATCCBAA1705, K. pneumoniae ATCC BAA-1705, KPC-producing strain, read-out: minimal inhibitory concentration (MIC)): 1 µg/mL (≈ 1.76 µM)
- MIC (S. aureus RN4220; Staphylococcus aureus, RN4220, S. aureus RN4220, Sensitive bacterium, read-out: minimal inhibitory concentration (MIC)): 1 µg/mL (≈ 1.76 µM)
- MIC ([3]; Acinetobacter baumannii, ATCCBAA1710, A. baumannii ATCC BAA-1710, MDRA, read-out: minimal inhibitory concentration (MIC)): 16 µg/mL (≈ 28.2 µM)
- MIC (E. faecium ATCC19434; Enterococcus faecium, ATCC19434, E. faecium ATCC19434, read-out: minimal inhibitory concentration (MIC)): 8 µg/mL (≈ 14.1 µM)

Compound: CNC1C(OC2CC(O)C(N)C(CO)O2)OC2CC(N)C(OC3C(N)CC(N)C(O)C3O)OC2C1O (centres unmarked) [Compound Y3, 2″-deoxy-5,3″-diepiapramycin]
- minimal inhibitory concentration (MIC) (S. aureus RN4220/pMS520): 2 µg/mL (≈ 3.82 µM)
- minimal inhibitory concentration (MIC) (S. aureus MF490): 4 µg/mL (≈ 7.64 µM)
- minimal inhibitory concentration (MIC) [1]: 2 µg/mL (≈ 3.82 µM)
- minimal inhibitory concentration (MIC) (P. aeruginosa PAO1/GN315): 8 µg/mL (≈ 15.3 µM)
- minimal inhibitory concentration (MIC) (S. marcescens TH-0447): 8 µg/mL (≈ 15.3 µM)
- minimal inhibitory concentration (MIC) (P. aeruginosa PAO1): 4 µg/mL (≈ 7.64 µM)
- minimal inhibitory concentration (MIC) (E. coli JM109/pMW218): 1 µg/mL (≈ 1.91 µM)
- minimal inhibitory concentration (MIC) (P. aeruginosa MSC17707): 8 µg/mL (≈ 15.3 µM)
- minimal inhibitory concentration (MIC) (S. marcescens GN6944): 4 µg/mL (≈ 7.64 µM)
- minimal inhibitory concentration (MIC) (P. aeruginosa MSC01035): 16 µg/mL (≈ 30.6 µM)
- minimal inhibitory concentration (MIC) [2]: 2 µg/mL (≈ 3.82 µM)
- minimal inhibitory concentration (MIC) (S. aureus RN4220): 2 µg/mL (≈ 3.82 µM)
- minimal inhibitory concentration (MIC) [3]: 8 µg/mL (≈ 15.3 µM)
- minimal inhibitory concentration (MIC) (E. faecium ATCC19434): 8 µg/mL (≈ 15.3 µM)

Compound: gentamicin [GM, reference compound]
- minimal inhibitory concentration (MIC) (S. aureus RN4220/pMS520): 0.5 µg/mL
- minimal inhibitory concentration (MIC) (S. aureus MF490): >64 µg/mL
- minimal inhibitory concentration (MIC) [1]: >64 µg/mL
- minimal inhibitory concentration (MIC) (P. aeruginosa PAO1/GN315): 8 µg/mL
- minimal inhibitory concentration (MIC) (S. marcescens TH-0447): 32 µg/mL
- minimal inhibitory concentration (MIC) (P. aeruginosa PAO1): 2 µg/mL
- minimal inhibitory concentration (MIC) (E. coli JM109/pMW218): 0.25 µg/mL
- minimal inhibitory concentration (MIC) (P. aeruginosa MSC17707): 8 µg/mL
- minimal inhibitory concentration (MIC) (S. marcescens GN6944): 64 µg/mL
- minimal inhibitory concentration (MIC) (P. aeruginosa MSC01035): >64 µg/mL
- minimal inhibitory concentration (MIC) [2]: 2 µg/mL
- minimal inhibitory concentration (MIC) (S. aureus RN4220): 0.5 µg/mL
- minimal inhibitory concentration (MIC) [3]: >64 µg/mL
- minimal inhibitory concentration (MIC) (E. faecium ATCC19434): 8 µg/mL
